Reference: US20070128217A1 (priority 2003, published 2007)

Columns and labels:
[1] = tested on: control sera (pooled serum of ten healthy LUMC hospital workers; commercial negative donor pooled serum from the Dutch bloodbank); format: binding, human; set-up: Binding of Control serum LUMC to linear peptides / Binding of Control serum Blood-bank to linear peptides / Binding of Control serum LUMC to looped peptides / Binding of Control Serum Blood-Bank to Looped peptides / Binding of Control serum LUMC to linear peptides of the protein M of SARS-CoV Urbani / Binding of Control serum Blood-bank to linear peptides of the protein M of SARS-CoV Urbani / Binding of Control serum LUMC to looped peptides of the protein M of SARS-CoV Urbani / Binding of Control Serum Blood-Bank to Looped peptides of the protein M of SARS-CoV Urbani: unit not given here
[2] = tested on: rabbit serum obtained by immunizing a rabbit with the SARS-CoV strain Frankfurt 1; format: binding; set-up: Binding of a rabbit serum to linear peptides / Binding of a rabbit serum to looped peptides / Rabbit serum linear peptides / Rabbit serum looped peptides / Binding of a rabbit serum to linear peptides of protein N of SARS-CoV Urbani (Rabbit serum linear peptides) / Binding of a rabbit serum to looped/cyclic peptides of protein N of SARS-CoV Urbani (Rabbit serum looped peptides): unit not given here
[3] = tested on: antibodies in sera from SARS patients (sera 1a, 1b, 2, 6, 37, 62, London, SARS-yellow, SARS-green); format: binding, human; set-up: Binding of serum 6 to linear peptides of protein X1 of SARS-CoV Urbani / Binding of serum 37 to linear peptides of protein X1 of SARS-CoV Urbani / Binding of serum 6 to looped/cyclic peptide (PEPSCAN-ELISA) / Binding of serum 37 to looped/cyclic peptide (PEPSCAN-ELISA) / Binding of serum 37 to looped/cyclic peptides of protein X1 of SARS-CoV Urbani / Binding of serum 6 to linear peptides of protein X2 / Binding of serum 37 to linear peptides of protein X2 / Binding of serum 37 to looped/cyclic peptides of protein X2 of SARS-CoV Urbani / Binding of serum 6 to linear peptides of protein M of SARS-CoV Urbani / Binding of serum 37 to linear peptides of protein M of SARS-CoV Urbani / Binding of serum 6 to looped/cyclic peptides of protein M of SARS-CoV Urbani / Binding of serum 37 to looped/cyclic peptides of protein M of SARS-CoV Urbani / Binding of serum 6 to linear peptides of protein X3 of SARS-CoV Urbani / Binding of serum 37 to linear peptides of protein X3 of SARS-CoV Urbani / Binding of serum 37 to looped/cyclic peptides of protein X3 of SARS-CoV Urbani / Binding of serum 6 to linear peptides of protein X4 of SARS-CoV Urbani / Binding of serum 37 to linear peptides of protein X4 of SARS-CoV Urbani / Binding of serum 37 to looped/cyclic peptides of protein X4 of SARS-CoV Urbani / Binding of serum 6 to linear peptides of protein X5 of SARS-CoV Urbani / Binding of serum 37 to linear peptides of protein X5 of SARS-CoV Urbani / Binding of serum 37 to looped/cyclic peptides of protein X5 of SARS-CoV Urbani / Binding of serum 6 to linear peptides of protein N of SARS-CoV Urbani / Binding of serum 37 to linear peptides of protein N of SARS-CoV Urbani / Binding of serum 6 to linear peptide (PEPSCAN-ELISA) / Binding of serum 1a to looped/cyclic peptides of protein N of SARS-CoV Urbani / Binding of serum 1b to looped/cyclic peptides of protein N of SARS-CoV Urbani / Binding of serum 2 to looped/cyclic peptides of protein N of SARS-CoV Urbani / Binding of serum 6 to looped/cyclic peptides of protein N of SARS-CoV Urbani / Binding of serum 37 to looped/cyclic peptides of protein N of SARS-CoV Urbani / Binding of serum 62 to looped/cyclic peptides of protein N of SARS-CoV Urbani / Binding of serum London to looped/cyclic peptides of protein N of SARS-CoV Urbani / Binding of serum SARS-green to looped/cyclic peptides of protein N of SARS-CoV Urbani: unit not given here

## LAAVYRINWVTGGIA
[1]
  Binding of Control Serum Blood-Bank to Looped peptides of the protein M of SARS-CoV Urbani: 0.4
  Binding of Control serum Blood-bank to linear peptides of the protein M of SARS-CoV Urbani: 0.6
  Binding of Control serum LUMC to linear peptides of the protein M of SARS-CoV Urbani: 0.5
  Binding of Control serum LUMC to looped peptides of the protein M of SARS-CoV Urbani: 0.6
[2]
  Rabbit serum linear peptides: 0.4
  Rabbit serum looped peptides: 0.0
[3]
  Binding of serum 1a to linear peptides of protein M of SARS-CoV Urbani: 0.7
  Binding of serum 1a to looped/cyclic peptides of protein M of SARS-CoV Urbani: 0.8
  Binding of serum 1b to linear peptides of protein M of SARS-CoV Urbani: 0.5
  Binding of serum 1b to looped/cyclic peptides of protein M of SARS-CoV Urbani: 0.2
  Binding of serum 2 to linear peptides of protein M of SARS-CoV Urbani: 0.6
  Binding of serum 2 to looped/cyclic peptides of protein M of SARS-CoV Urbani: 0.5
  Binding of serum 6 to linear peptides of protein M of SARS-CoV Urbani: 0.3
  Binding of serum 6 to looped/cyclic peptides of protein M of SARS-CoV Urbani: 0.7
  Binding of serum 37 to linear peptides of protein M of SARS-CoV Urbani: 0.8
  Binding of serum 37 to looped/cyclic peptides of protein M of SARS-CoV Urbani: 0.5
  Binding of serum 62 to linear peptides of protein M of SARS-CoV Urbani: 0.9
  Binding of serum 62 to looped/cyclic peptides of protein M of SARS-CoV Urbani: 0.5
  Binding of serum London to linear peptides of protein M of SARS-CoV Urbani: 0.3
  Binding of serum London to looped/cyclic peptides of protein M of SARS-CoV Urbani: 0.2
  Binding of serum SARS-green to linear peptides of protein M of SARS-CoV Urbani: 0.3
  Binding of serum SARS-green to looped/cyclic peptides of protein M of SARS-CoV Urbani: 0.3
  Binding of serum SARS-yellow to linear peptides of protein M of SARS-CoV Urbani: 0.1
  Binding of serum SARS-yellow to looped/cyclic peptides of protein M of SARS-CoV Urbani: 0.3

## TNILLNVPLRGTIVT
[1]
  Binding of Control Serum Blood-Bank to Looped peptides of the protein M of SARS-CoV Urbani: 0.8
  Binding of Control serum Blood-bank to linear peptides of the protein M of SARS-CoV Urbani: 0.8
  Binding of Control serum LUMC to linear peptides of the protein M of SARS-CoV Urbani: 0.7
  Binding of Control serum LUMC to looped peptides of the protein M of SARS-CoV Urbani: 0.6
[2]
  Rabbit serum linear peptides: 0.2
  Rabbit serum looped peptides: 0.1
[3]
  Binding of serum 1a to linear peptides of protein M of SARS-CoV Urbani: 0.6
  Binding of serum 1a to looped/cyclic peptides of protein M of SARS-CoV Urbani: 0.6
  Binding of serum 1b to linear peptides of protein M of SARS-CoV Urbani: 0.5
  Binding of serum 1b to looped/cyclic peptides of protein M of SARS-CoV Urbani: 0.4
  Binding of serum 2 to linear peptides of protein M of SARS-CoV Urbani: 0.6
  Binding of serum 2 to looped/cyclic peptides of protein M of SARS-CoV Urbani: 0.6
  Binding of serum 6 to linear peptides of protein M of SARS-CoV Urbani: 0.4
  Binding of serum 6 to looped/cyclic peptides of protein M of SARS-CoV Urbani: 0.8
  Binding of serum 37 to linear peptides of protein M of SARS-CoV Urbani: 0.4
  Binding of serum 37 to looped/cyclic peptides of protein M of SARS-CoV Urbani: 0.7
  Binding of serum 62 to linear peptides of protein M of SARS-CoV Urbani: 0.5
  Binding of serum 62 to looped/cyclic peptides of protein M of SARS-CoV Urbani: 0.6
  Binding of serum London to linear peptides of protein M of SARS-CoV Urbani: 0.3
  Binding of serum London to looped/cyclic peptides of protein M of SARS-CoV Urbani: 0.2
  Binding of serum SARS-green to linear peptides of protein M of SARS-CoV Urbani: 0.5
  Binding of serum SARS-green to looped/cyclic peptides of protein M of SARS-CoV Urbani: 0.2
  Binding of serum SARS-yellow to linear peptides of protein M of SARS-CoV Urbani: 0.2
  Binding of serum SARS-yellow to looped/cyclic peptides of protein M of SARS-CoV Urbani: 0.4

## IPLQASLPFGWLVIG
[1]
  Binding of Control Serum Blood-Bank to Looped peptides: 0.6
  Binding of Control serum Blood-bank to linear peptides: 0.7
  Binding of Control serum LUMC to linear peptides: 0.8
  Binding of Control serum LUMC to looped peptides: 0.6
[2]
  Binding of a rabbit serum to linear peptides: 0.1
  Binding of a rabbit serum to looped peptides: 0.5
[3]
  Binding of serum 1a to linear peptides of protein X1 of SARS-CoV Urbani: 0.8
  Binding of serum 1a to looped/cyclic peptide (PEPSCAN-ELISA): 0.6
  Binding of serum 1b to linear peptides of protein X1 of SARS-CoV Urbani: 0.6
  Binding of serum 1b to looped/cyclic peptide (PEPSCAN-ELISA): 0.4
  Binding of serum 2 to linear peptides of protein X1 of SARS-CoV Urbani: 0.6
  Binding of serum 2 to looped/cyclic peptide (PEPSCAN-ELISA): 0.4
  Binding of serum 6 to linear peptides of protein X1 of SARS-CoV Urbani: 0.5
  Binding of serum 6 to looped/cyclic peptide (PEPSCAN-ELISA): 0.3
  Binding of serum 37 to linear peptides of protein X1 of SARS-CoV Urbani: 0.7
  Binding of serum 37 to looped/cyclic peptide (PEPSCAN-ELISA): 0.5
  Binding of serum 62 to linear peptides of protein X1 of SARS-CoV Urbani: 0.6
  Binding of serum 62 to looped/cyclic peptide (PEPSCAN-ELISA): 0.6
  Binding of serum London to linear peptides of protein X1 of SARS-CoV Urbani: 0.3
  Binding of serum London to looped/cyclic peptide (PEPSCAN-ELISA): 0.2
  Binding of serum SARS-green to linear peptides of protein X1 of SARS-CoV Urbani: 0.4
  Binding of serum SARS-green to looped/cyclic peptide (PEPSCAN-ELISA): 0.3
  Binding of serum SARS-yellow to linear peptides of protein X1 of SARS-CoV Urbani: 0.5
  Binding of serum SARS-yellow to looped/cyclic peptide (PEPSCAN-ELISA): 0.3

## FMRFFTLGSITAQPV
[1]
  Binding of Control Serum Blood-Bank to Looped peptides: 0.6
  Binding of Control serum Blood-bank to linear peptides: 0.7
  Binding of Control serum LUMC to linear peptides: 0.7
  Binding of Control serum LUMC to looped peptides: 0.6
[2]
  Binding of a rabbit serum to linear peptides: 0.3
  Binding of a rabbit serum to looped peptides: 0.4
[3]
  Binding of serum 1a to linear peptides of protein X1 of SARS-CoV Urbani: 0.8
  Binding of serum 1a to looped/cyclic peptide (PEPSCAN-ELISA): 0.5
  Binding of serum 1b to linear peptides of protein X1 of SARS-CoV Urbani: 0.6
  Binding of serum 1b to looped/cyclic peptide (PEPSCAN-ELISA): 0.3
  Binding of serum 2 to linear peptides of protein X1 of SARS-CoV Urbani: 0.8
  Binding of serum 2 to looped/cyclic peptide (PEPSCAN-ELISA): 0.4
  Binding of serum 6 to linear peptides of protein X1 of SARS-CoV Urbani: 0.5
  Binding of serum 6 to looped/cyclic peptide (PEPSCAN-ELISA): 0.4
  Binding of serum 37 to linear peptides of protein X1 of SARS-CoV Urbani: 0.7
  Binding of serum 37 to looped/cyclic peptide (PEPSCAN-ELISA): 0.5
  Binding of serum 62 to linear peptides of protein X1 of SARS-CoV Urbani: 0.7
  Binding of serum 62 to looped/cyclic peptide (PEPSCAN-ELISA): 0.5
  Binding of serum London to linear peptides of protein X1 of SARS-CoV Urbani: 0.3
  Binding of serum London to looped/cyclic peptide (PEPSCAN-ELISA): 0.2
  Binding of serum SARS-green to linear peptides of protein X1 of SARS-CoV Urbani: 0.3
  Binding of serum SARS-green to looped/cyclic peptide (PEPSCAN-ELISA): 0.2
  Binding of serum SARS-yellow to linear peptides of protein X1 of SARS-CoV Urbani: 0.7
  Binding of serum SARS-yellow to looped/cyclic peptide (PEPSCAN-ELISA): 0.3

## LVFLILCFTIKRKTE
[1]
  Binding of Control Serum Blood-Bank to Looped peptides: 0.8
  Binding of Control serum Blood-bank to linear peptides: 0.8
  Binding of Control serum LUMC to linear peptides: 0.6
  Binding of Control serum LUMC to looped peptides: 0.6
[2]
  Rabbit serum linear peptides: 0.5
  Rabbit serum looped peptides: 0.6
[3]
  Binding of serum 1a to linear peptides of protein X4 of SARS-CoV Urbani: 0.7
  Binding of serum 1a to looped/cyclic peptides of protein X4 of SARS-CoV Urbani: 0.7
  Binding of serum 1b to linear peptides of protein X4 of SARS-CoV Urbani: 0.6
  Binding of serum 1b to looped/cyclic peptides of protein X4 of SARS-CoV Urbani: 0.4
  Binding of serum 2 to linear peptides of protein X4 of SARS-CoV Urbani: 0.5
  Binding of serum 2 to looped/cyclic peptides of protein X4 of SARS-CoV Urbani: 0.6
  Binding of serum 6 to linear peptides of protein X4 of SARS-CoV Urbani: 0.7
  Binding of serum 6 to looped/cyclic peptides of protein X4 of SARS-CoV Urbani: 0.7
  Binding of serum 37 to linear peptides of protein X4 of SARS-CoV Urbani: 0.7
  Binding of serum 37 to looped/cyclic peptides of protein X4 of SARS-CoV Urbani: 0.6
  Binding of serum 62 to linear peptides of protein X4 of SARS-CoV Urbani: 0.8
  Binding of serum 62 to looped/cyclic peptides of protein X4 of SARS-CoV Urbani: 0.7
  Binding of serum London to linear peptides of protein X4 of SARS-CoV Urbani: 0.8
  Binding of serum London to looped/cyclic peptides of protein X4 of SARS-CoV Urbani: 0.4
  Binding of serum SARS-green to linear peptides of protein X4 of SARS-CoV Urbani: 0.7
  Binding of serum SARS-green to looped/cyclic peptides of protein X4 of SARS-CoV Urbani: 0.2
  Binding of serum SARS-yellow to linear peptides of protein X4 of SARS-CoV Urbani: 0.6
  Binding of serum SARS-yellow to looped/cyclic peptides of protein X4 of SARS-CoV Urbani: 0.7
